From patent publication US20020137929A1, “1 - (3-heterocyclylphenyl) isothiourea, -isourea, -guanidine and -amidine herbicidal agents” (Intellectual Property Department, BASF Aktiengesellschaft, priority 1998, published 2002)

Experiments:
ABUTH (Velvetleaf) = experiment: Postemergence herbicidal evaluation; assay type: in vivo, Abutilon theophrasti; conditions: postemergence
Summary of the method: (§1)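 Young plants, roughly two weeks from seeding, receive the active ingredient as a sprayed dispersion (acetone/water 50/50, 0.5% TWEEN 20) at 40 psi. Doses span about 0.0156 to 0.500 kg/ha. A visual score from 0 to 9 compares treated with control plants four to five weeks on.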

AMBEL (Ragweed, Common) = experiment: Postemergence herbicidal evaluation; assay type: in vivo, Ambrosia artemisifolia; conditions: postemergence
Summary of the method: as §1

[1] = tested on: IPOHE (Morningglory, Ivyleaf); experiment: Postemergence herbicidal evaluation; assay type: in vivo, Ipomoea hederacea; conditions: postemergence
Summary of the method: as §1

ECHCG (Barnyardgrass) [2] = experiment: Postemergence herbicidal evaluation; assay type: in vivo, Echinochloa crus-galli; conditions: postemergence
Summary of the method: as §1

SETVI (Foxtail, Green) = experiment: Postemergence herbicidal evaluation; assay type: in vivo, Setaria viridis; conditions: postemergence
Summary of the method: as §1

[3] = tested on: GLXMAW (Soybean, Williams); experiment: Postemergence herbicidal evaluation; assay type: in vivo, Glycine max, (L.) Merr. cv Williams; conditions: postemergence
Summary of the method: as §1

[4] = tested on: TRZAWR (Wheat, Winter, cv Riband); experiment: Postemergence herbicidal evaluation; assay type: in vivo, Triticum aestivum; conditions: postemergence
Summary of the method: as §1

CASOB (Sicklepod) = experiment: Preemergence herbicidal evaluation; assay type: in vivo, Cassia obtusifolia; conditions: rated 4-5 weeks after treatment
Summary of the method: (§2)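 Herbicidal effect scored visually, 0-9, at 4 to 5 weeks against a control; compound applied preemergence by aqueous acetone spray to seeded soil at about 0.0156 to 0.500 kg/ha.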

[5] = tested on: CHEAL (Lambsquarters, Common); experiment: Preemergence herbicidal evaluation; assay type: in vivo, Chenopodium album; conditions: rated 4-5 weeks after treatment
Summary of the method: as §2

GALAP (Galium) = experiment: Preemergence herbicidal evaluation; assay type: in vivo, Galium aparine; conditions: rated 4-5 weeks after treatment
Summary of the method: as §2

[6] = tested on: IPOHE (Morningglory, Ivyleaf); experiment: Preemergence herbicidal evaluation; assay type: in vivo, Ipomoea hederacea; conditions: rated 4-5 weeks after treatment
Summary of the method: as §2

ECHCG (Barnyardgrass) [7] = experiment: Preemergence herbicidal evaluation; assay type: in vivo, Echinochloa crus-galli; conditions: rated 4-5 weeks after treatment
Summary of the method: as §2

ZEAMX (Corn, Field) = experiment: Preemergence herbicidal evaluation; assay type: in vivo, Zea mays; conditions: rated 4-5 weeks after treatment
Summary of the method: as §2

## CCOC(=O)CN1C(=O)C(SC)SC1=Nc1cc(-n2c(=O)cc(C(F)(F)F)n(C)c2=O)c(F)cc1Cl (stereo not drawn) [Compound 125, Ethyl 2-{{2-chloro-5-[3,6-dihydro-3-methyl-2,6-dioxo-4-(trifluoromethyl)-1(2H)-pyrimidinyl]-4-fluorophenyl}imino}-5-(methylthio)-4-oxo-3-thiazolidineacetate]
ABUTH (Velvetleaf); rate 0.0156 kg/ha
  herbicidal rating ABUTH: 9.0
ABUTH (Velvetleaf); rate 0.0313 kg/ha
  herbicidal rating ABUTH: 9.0
ABUTH (Velvetleaf); rate 0.0625 kg/ha
  herbicidal rating ABUTH: 9.0
AMBEL (Ragweed, Common); rate 0.0156 kg/ha
  herbicidal rating AMBEL: 3.0
AMBEL (Ragweed, Common); rate 0.0313 kg/ha
  herbicidal rating AMBEL: 8.0
AMBEL (Ragweed, Common); rate 0.0625 kg/ha
  herbicidal rating AMBEL: 8.0
[1]; rate 0.0156 kg/ha
  herbicidal rating IPOHE: 9.0
[1]; rate 0.0313 kg/ha
  herbicidal rating IPOHE: 9.0
[1]; rate 0.0625 kg/ha
  herbicidal rating IPOHE: 9.0
ECHCG (Barnyardgrass) [2]; rate 0.0156 kg/ha
  herbicidal rating ECHCG: 1.0
ECHCG (Barnyardgrass) [2]; rate 0.0313 kg/ha
  herbicidal rating ECHCG: 2.0
ECHCG (Barnyardgrass) [2]; rate 0.0625 kg/ha
  herbicidal rating ECHCG: 3.0
SETVI (Foxtail, Green); rate 0.0156 kg/ha
  herbicidal rating SETVI: 2.0
SETVI (Foxtail, Green); rate 0.0313 kg/ha
  herbicidal rating SETVI: 5.0
SETVI (Foxtail, Green); rate 0.0625 kg/ha
  herbicidal rating SETVI: 5.0
[3]; rate 0.0156 kg/ha
  herbicidal rating GLXMAW: 7.3
[3]; rate 0.0313 kg/ha
  herbicidal rating GLXMAW: 8.0
[3]; rate 0.0625 kg/ha
  herbicidal rating GLXMAW: 8.7
[4]; rate 0.0156 kg/ha
  herbicidal rating TRZAWR: 4.3
[4]; rate 0.0313 kg/ha
  herbicidal rating TRZAWR: 5.0
[4]; rate 0.0625 kg/ha
  herbicidal rating TRZAWR: 5.0
CASOB (Sicklepod); rate 0.0156 kg/ha
  Preemergence herbicidal rating CASOB: 0.0
CASOB (Sicklepod); rate 0.0313 kg/ha
  Preemergence herbicidal rating CASOB: 1.0
CASOB (Sicklepod); rate 0.0625 kg/ha
  Preemergence herbicidal rating CASOB: 3.0
CASOB (Sicklepod); rate 0.1250 kg/ha
  Preemergence herbicidal rating CASOB: 2.0
CASOB (Sicklepod); rate 0.2500 kg/ha
  Preemergence herbicidal rating CASOB: 9.0
CASOB (Sicklepod); rate 0.5000 kg/ha
  Preemergence herbicidal rating CASOB: 9.0
[5]; rate 0.0156 kg/ha
  Preemergence herbicidal rating CHEAL: 9.0
[5]; rate 0.0313 kg/ha
  Preemergence herbicidal rating CHEAL: 9.0
[5]; rate 0.0625 kg/ha
  Preemergence herbicidal rating CHEAL: 9.0
[5]; rate 0.1250 kg/ha
  Preemergence herbicidal rating CHEAL: 9.0
[5]; rate 0.2500 kg/ha
  Preemergence herbicidal rating CHEAL: 9.0
[5]; rate 0.5000 kg/ha
  Preemergence herbicidal rating CHEAL: 9.0
GALAP (Galium); rate 0.0156 kg/ha
  Preemergence herbicidal rating GALAP: 0.0
GALAP (Galium); rate 0.0313 kg/ha
  Preemergence herbicidal rating GALAP: 0.0
GALAP (Galium); rate 0.0625 kg/ha
  Preemergence herbicidal rating GALAP: 0.0
GALAP (Galium); rate 0.1250 kg/ha
  Preemergence herbicidal rating GALAP: 1.0
GALAP (Galium); rate 0.2500 kg/ha
  Preemergence herbicidal rating GALAP: 7.0
GALAP (Galium); rate 0.5000 kg/ha
  Preemergence herbicidal rating GALAP: 9.0
[6]; rate 0.0156 kg/ha
  Preemergence herbicidal rating IPOHE: 0.0
[6]; rate 0.0313 kg/ha
  Preemergence herbicidal rating IPOHE: 0.0
[6]; rate 0.0625 kg/ha
  Preemergence herbicidal rating IPOHE: 4.0
[6]; rate 0.1250 kg/ha
  Preemergence herbicidal rating IPOHE: 4.0
[6]; rate 0.2500 kg/ha
  Preemergence herbicidal rating IPOHE: 9.0
[6]; rate 0.5000 kg/ha
  Preemergence herbicidal rating IPOHE: 9.0
ECHCG (Barnyardgrass) [7]; rate 0.0156 kg/ha
  Preemergence herbicidal rating ECHCG: 0.0
ECHCG (Barnyardgrass) [7]; rate 0.0313 kg/ha
  Preemergence herbicidal rating ECHCG: 0.0
ECHCG (Barnyardgrass) [7]; rate 0.0625 kg/ha
  Preemergence herbicidal rating ECHCG: 0.0
ECHCG (Barnyardgrass) [7]; rate 0.1250 kg/ha
  Preemergence herbicidal rating ECHCG: 3.0
ECHCG (Barnyardgrass) [7]; rate 0.2500 kg/ha
  Preemergence herbicidal rating ECHCG: 7.0
ECHCG (Barnyardgrass) [7]; rate 0.5000 kg/ha
  Preemergence herbicidal rating ECHCG: 9.0
ZEAMX (Corn, Field); rate 0.0156 kg/ha
  Preemergence herbicidal rating ZEAMX: 0.0
ZEAMX (Corn, Field); rate 0.0313 kg/ha
  Preemergence herbicidal rating ZEAMX: 0.0
ZEAMX (Corn, Field); rate 0.0625 kg/ha
  Preemergence herbicidal rating ZEAMX: 3.0
ZEAMX (Corn, Field); rate 0.1250 kg/ha
  Preemergence herbicidal rating ZEAMX: 6.0
ZEAMX (Corn, Field); rate 0.2500 kg/ha
  Preemergence herbicidal rating ZEAMX: 7.0
ZEAMX (Corn, Field); rate 0.5000 kg/ha
  Preemergence herbicidal rating ZEAMX: 7.0
